Reference: PubChem BioAssay AID1963842 (Molecular Pharmacology Branch, DTP, NCI, 2024)

Tested on: 677734-321-R-J1-PDC complex spheroid viability
Experiment: Anticancer human tumor 677734-321-R-J1-PDC patient-derived soft tissue sarcoma cell line growth inhibition [POLQ]
Details: for IC50: curve of first compound; for viability, T/C: stronger effect = lower value
Protocol: Multicellular complex tumor spheroid response to Polymerase (POL) inhibitors (novobiocin, ART-558, RP6685) in combination with a variety of drugs and investigational agents in selected tumor cell lines
The POL inhibitors (novobiocin, ART-558, and RP6685) were evaluated both individually and in combination with standard of care and investigational anticancer small molecules within a complex spheroid model of solid tumors. . Complex spheroids include a stromal component modeled by human endothelial cells (HUVEC) and fibroblasts modeled by human mesenchymal stem cells (MSCs). The concentration ranges selected for each drug and investigational agent were based upon clinically achievable concentrations if the clinical Cmax of the agent was known.
Compounds. The drugs and investigational agents: novobiocin (NSC847541), ART-558 (NSC835418), RP-6685 (NSC848927), peposertib (NSC802822), ceralasertib (NSC780249), elimusertib (NSC800525), camonsertib (NSC841442), AZD-1390 (NSC803789), olaparib (NSC753686), talazoparib (NSC767125), rucaparib (NSC756644), sotorasib (NSC818433), MRTX-1133 (NSC836407), SN-38 (NSC673596), topotecan (NSC609699), epotoside (NSC141540), doxorubicin (NSC123127), gemcitabine (NSC613327), 5-fluorouracil (NSC19893), paclitaxel (NSC125973), vemurafenib (NSC761431), MSA-2 (NSC828583), SN-011 (NSC837082), adavosertib (NSC754352), prexasertib (NSC758257), carboplatin (NSC241240) and oxaliplatin (NSC266046), were obtained from the National Cancer Institute (NCI) Developmental Therapeutics Program Chemical Repository (21). The FDA-approved anticancer drug set is available from the Developmental Therapeutics Program at https://dtp.cancer.gov/organization/dscb/obtaining/. […] The stock solutions were prepared in dimethyl sulfoxide (DMSO, Sigma-Aldrich, St. Louis, MO, cat. D2650), except for the platinum compounds which were prepared in saline (Quality Biological, Gaithersburg, MD, cat. 114-055-101), at 800-fold the tested concentration and stored at -70 degrees C prior to their use. All drugs and investigational agents were tested over a range starting from a high concentration at or near the clinical Cmax and decreasing in half-log increments. If the clinical Cmax for an agent had not been determined, the highest concentration tested was 10 microM, except for SN-38, which was tested at a high concentration of 1 microM.
Cell Culture. All cells were maintained in an incubator at 37 degrees C and 5% CO2 with 95% humidity. The PDC lines were cultured according to standard operating procedures established by the NCI PDMR (https://pdmr.cancer.gov). Table 3 of the manuscript, lists the cell lines along with the number of the three cell types plated to form the mct-spheroids and media for tumor cell growth. After thawing, all PDC lines, except 997537-175-T-J1-PDC and 415267-285-R-J2-PDC, were cultured in Matrigel-coated flasks prepared with a working solution of 1X Ham's F-12 nutrient mix, without supplementation (Thermo Fisher Scientific, cat. 11765054), 100 U/mL penicillin-streptomycin (Thermo Fisher Scientific, cat. 15140122), and 2.5% Matrigel (Corning Inc., Corning, NY, cat. 354248) for the first three passages. The two PDC lines 997537-175-T-J1-PDC and 415267-285-R-J2-PDC were cultured on uncoated flasks. The 857933-349-R-J2-PDC line was cultured in 6C/Colon 1B media containing advanced DMEM/F-12 (Thermo Fisher Scientific, cat. 12634028), 10 mM HEPES (Thermo Fisher Scientific, cat. 15630080), 1X GlutaMAX supplement (Thermo Fisher Scientific, cat. 35050061), 0.1 mg/mL primocin (InvivoGen, San Diego, CA, cat. ant-pm-2), 10% defined fetal bovine serum, heat inactivated (HyClone Laboratories Inc., Logan, UT, cat. SH30070.03HI), 50% L-WRN conditioned media (ATCC, cat. CRL-3276), 1.25 mM N-Acetyl-L-cysteine (Sigma-Aldrich, cat. A9165), 10 mM nicotinamide (Sigma-Aldrich, cat. N0636), 1X B-27 supplement (Thermo Fisher Scientific, cat. 17504044), 1X N-2 supplement (Thermo Fisher Scientific, cat. […]
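Note: spheroids exposed to compounds for one week.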
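Throughout, for viability, T/C: 100% = vehicle DMSO treated spheroids.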

Compound `CC(C)n1c(=O)n(C)c2cnc3cc(F)c(-c4ccc(OCCCN5CCCCC5)nc4)cc3c21` + Nc1ccc(C#CCN(C(=O)Cc2ncc(C(F)(F)F)cc2C(F)(F)F)c2ccc(F)cc2)nn1 has an IC50 (second compound 0.0316 µM) of over 10 µM, an IC50 (second compound 0.1 µM) of over 10 µM and an IC50 (second compound 0.316 µM) of over 10 µM. For the same compound, the IC50 (second compound 1 µM) was over 10 µM, the IC50 (second compound 3.16 µM) was over 10 µM and the IC50 (second compound 10 µM) was over 10 µM. The viability, T/C (second compound 0.0316 µM, first compound 0.0316 µM) was 94%, the viability, T/C (second compound 0.0316 µM, first compound 0.1 µM) was 106% and the viability, T/C (second compound 0.0316 µM, first compound 0.316 µM) was 103%. For the same compound, the viability, T/C (second compound 0.0316 µM, first compound 1 µM) was 97.1%, the viability, T/C (second compound 0.0316 µM, first compound 3.16 µM) was 87.7% and the viability, T/C (second compound 0.0316 µM, first compound 10 µM) was 101%. The viability, T/C (second compound 0.1 µM, first compound 0.0316 µM) was 99%, the viability, T/C (second compound 0.1 µM, first compound 0.1 µM) was 102% and the viability, T/C (second compound 0.1 µM, first compound 0.316 µM) was 92.2%. It also gave a viability, T/C (second compound 0.1 µM, first compound 1 µM) of 81.5%, a viability, T/C (second compound 0.1 µM, first compound 3.16 µM) of 72.6% and a viability, T/C (second compound 0.1 µM, first compound 10 µM) of 88.8%. For the same compound, the viability, T/C (second compound 0.316 µM, first compound 0.0316 µM) was 90.2%, the viability, T/C (second compound 0.316 µM, first compound 0.1 µM) was 92.7% and the viability, T/C (second compound 0.316 µM, first compound 0.316 µM) was 98%. For the same compound, the viability, T/C (second compound 0.316 µM, first compound 1 µM) was 112%, the viability, T/C (second compound 0.316 µM, first compound 3.16 µM) was 84.9% and the viability, T/C (second compound 0.316 µM, first compound 10 µM) was 94.2%. For the same compound, the viability, T/C (second compound 1 µM, first compound 0.0316 µM) was 109%, the viability, T/C (second compound 1 µM, first compound 0.1 µM) was 85.9% and the viability, T/C (second compound 1 µM, first compound 0.316 µM) was 93.6%. The viability, T/C (second compound 1 µM, first compound 1 µM) was 80.5%, the viability, T/C (second compound 1 µM, first compound 3.16 µM) was 84.9% and the viability, T/C (second compound 1 µM, first compound 10 µM) was 96.3%. The viability, T/C (second compound 3.16 µM, first compound 0.0316 µM) was 112%, the viability, T/C (second compound 3.16 µM, first compound 0.1 µM) was 102% and the viability, T/C (second compound 3.16 µM, first compound 0.316 µM) was 95%. For the same compound, the viability, T/C (second compound 3.16 µM, first compound 1 µM) was 105%, the viability, T/C (second compound 3.16 µM, first compound 3.16 µM) was 83.3% and the viability, T/C (second compound 3.16 µM, first compound 10 µM) was 103%. For the same compound, the viability, T/C (second compound 10 µM, first compound 0.0316 µM) was 85.3%, the viability, T/C (second compound 10 µM, first compound 0.1 µM) was 96.3% and the viability, T/C (second compound 10 µM, first compound 0.316 µM) was 93.3%. The viability, T/C (second compound 10 µM, first compound 1 µM) was 79.5%, the viability, T/C (second compound 10 µM, first compound 3.16 µM) was 93% and the viability, T/C (second compound 10 µM, first compound 10 µM) was 89.2%.
